Experimental data taken from ChEMBL document CHEMBL3045253, “Synthesis and in vitro antiproliferative activity of diphenyl(sulphonylpiperidin-4-yl)methanol derivatives” (Med Chem Res, 2010).

Assays:
HepG2 = assay: Cytotoxicity against Homo sapiens (human) HepG2 cells assessed as survival at 100 uM after 24 hr by MTT assay relative to control; assay type: functional; settings: HepG2, 24 h, read-out: Survival
HT-29 = assay: Cytotoxicity against Homo sapiens (human) HT-29 cells assessed as survival at 100 uM after 24 hr by MTT assay relative to control; assay type: functional; settings: HT-29, 24 h, read-out: Survival
[1] = Cytotoxicity against Homo sapiens (human) NF103 cells assessed as survival at 100 uM after 24 hr by MTT assay relative to control; assay type: cell-based; settings: read-out: Survival
MCF7 = assay: Cytotoxicity against Homo sapiens (human) MCF7 cells assessed as survival at 100 uM after 24 hr by MTT assay relative to control; assay type: functional; settings: MCF7, 24 h, read-out: Survival
HeLa = assay: Cytotoxicity against Homo sapiens (human) HeLa cells assessed as survival at 100 uM after 24 hr by MTT assay relative to control; assay type: functional; settings: read-out: Survival

Row | Structure (SMILES) | viability at 100 µM (HepG2) [%] | viability at 100 µM (HT-29) [%] | viability at 24 h, 100 µM [1] [%] | viability at 100 µM (MCF7) [%] | viability at 100 µM (HeLa) [%]
1 | O=S(=O)(c1ccc(Cl)cc1F)N1CCC(C(O)(c2ccccc2)c2ccccc2)CC1 | 46.3 | 47.2 | 51.8 | 44.2 | 39.2
2 | O=S(=O)(c1ccccc1)N1CCC(C(O)(c2ccccc2)c2ccccc2)CC1 | 68.3 | 73.9 | 63 | 65.8 | 68.3
3 | CS(=O)(=O)N1CCC(C(O)(c2ccccc2)c2ccccc2)CC1 | 60.9 | 74.7 | 64 | 60.5 | 64.4
4 | O=[N+]([O-])c1ccc(S(=O)(=O)N2CCC(C(O)(c3ccccc3)c3ccccc3)CC2)cc1 | 68.7 | 70.8 | 53.6 | 69.8 | 54
5 | O=[N+]([O-])c1ccccc1S(=O)(=O)N1CCC(C(O)(c2ccccc2)c2ccccc2)CC1 | 57.2 | 78.5 | 63.4 | 73.8 | 64.3
6 | Cc1noc(C)c1S(=O)(=O)N1CCC(C(O)(c2ccccc2)c2ccccc2)CC1 | 52.2 | 73.6 | 53.8 | 38.7 | 39.9
7 | O=[N+]([O-])c1cccc(S(=O)(=O)N2CCC(C(O)(c3ccccc3)c3ccccc3)CC2)c1 | 64.2 | 75 | 57.4 | 63.4 | 70.3
8 | O=S(=O)(c1ccc(Cl)cc1)N1CCC(C(O)(c2ccccc2)c2ccccc2)CC1 | 52.2 | 69.6 | 53 | 61.4 | 49.7
9 | Cc1ccc(S(=O)(=O)N2CCC(C(O)(c3ccccc3)c3ccccc3)CC2)cc1 | 62.7 | 45.1 | 65.6 | 70.2 | 71.2
10 | O=S(=O)(CCl)N1CCC(C(O)(c2ccccc2)c2ccccc2)CC1 | 59.1 | 45.2 | 53.5 | 66 | 56.1
11 | O=S(=O)(Cc1ccccc1)N1CCC(C(O)(c2ccccc2)c2ccccc2)CC1 | 39.1 | 76.5 | 59.8 | 69.7 | 70.1
12 | CC(C)S(=O)(=O)N1CCC(C(O)(c2ccccc2)c2ccccc2)CC1 | 64.7 | 77.6 | 60 | 70.5 | 78.5
13 | CCCc1ccc(S(=O)(=O)N2CCC(C(O)(c3ccccc3)c3ccccc3)CC2)cc1 | 62.6 | 74.2 | 60 | 68.7 | 73.1
